Source: ChEMBL document CHEMBL2146420, “RXR Partial Agonist CBt-PMN Exerts Therapeutic Effects on Type 2 Diabetes without the Side Effects of RXR Full Agonists” (ACS Med Chem Lett, 2012)
Activity calls are given as the source filed them. No cut-off for these calls is given here.

Tests used:
Serum = assay: Drug level in ICR mouse serum at 30 mg/kg, po; assay type: ADME, organism-based; parameters: dose 30 mg/kg, route oral; settings: in vivo, read-out: Drug uptake
Mus musculus [1] = assay: Upregulation of Irs2 mRNA expression in KK-Ay mouse liver at 10 mg/kg/day, po administered for 14 days by RT-PCR analysis; assay type: functional, organism-based
Mus musculus [2] = assay: Upregulation of Slc2a1 mRNA expression in KK-Ay mouse liver at 10 mg/kg/day, po administered for 14 days by RT-PCR analysis; assay type: functional, organism-based
Mus musculus [3] = assay: Upregulation of Slc2a2 mRNA expression in KK-Ay mouse liver at 10 mg/kg/day, po administered for 14 days by RT-PCR analysis; assay type: functional, organism-based
Mus musculus [4] = assay: Downregulation of G6p mRNA expression in KK-Ay mouse liver at 10 mg/kg/day, po administered for 14 days by RT-PCR analysis; assay type: functional, organism-based
Mus musculus [5] = assay: Downregulation of Pck mRNA expression in KK-Ay mouse liver at 10 mg/kg/day, po administered for 14 days by RT-PCR analysis; assay type: functional, organism-based
Mus musculus [6] = assay: Upregulation of Fasn mRNA expression in KK-Ay mouse liver at 10 mg/kg/day, po administered for 14 days by RT-PCR analysis; assay type: ADME, organism-based; parameters: route oral; settings: in vivo, 336 h
[7] = molecular target: T1, Peroxisome proliferator-activated receptor gamma (Homo sapiens) (UniProt P37231); assay: Agonist activity at PPARgamma expressed in […] Cos1 cells after 18 hrs by SEAP reporter gene assay; assay type: functional, cell-based
T1 sequence (whole entry): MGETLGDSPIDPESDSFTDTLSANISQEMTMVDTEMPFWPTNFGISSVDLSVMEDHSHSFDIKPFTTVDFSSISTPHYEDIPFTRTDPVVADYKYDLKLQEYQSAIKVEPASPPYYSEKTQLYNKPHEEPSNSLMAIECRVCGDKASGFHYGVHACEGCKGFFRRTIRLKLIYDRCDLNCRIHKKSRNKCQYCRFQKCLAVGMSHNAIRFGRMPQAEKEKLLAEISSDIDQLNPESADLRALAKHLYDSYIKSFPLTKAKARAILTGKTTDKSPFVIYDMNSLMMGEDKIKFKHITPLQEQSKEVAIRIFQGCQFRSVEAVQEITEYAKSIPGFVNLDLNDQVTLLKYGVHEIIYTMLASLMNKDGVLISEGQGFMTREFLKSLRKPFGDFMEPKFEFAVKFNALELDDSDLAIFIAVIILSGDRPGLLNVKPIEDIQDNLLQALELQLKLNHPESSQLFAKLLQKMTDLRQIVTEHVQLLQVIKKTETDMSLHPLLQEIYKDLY

[8] = molecular target: RXR alpha/PPAR gamma (Homo sapiens) (UniProt P37231+P19793); assay: Agonist activity at PPARgamma/RXRalpha expressed in […] Cos1 cells after 18 hrs by SEAP reporter gene assay; assay type: functional, cell-based
[9] = molecular target: T2, Oxysterols receptor LXR-alpha (Homo sapiens) (UniProt Q13133); assay: Agonist activity at LXRalpha expressed in […] Cos1 cells after 18 hrs by SEAP reporter gene assay; assay type: functional, cell-based
T2 sequence (whole entry): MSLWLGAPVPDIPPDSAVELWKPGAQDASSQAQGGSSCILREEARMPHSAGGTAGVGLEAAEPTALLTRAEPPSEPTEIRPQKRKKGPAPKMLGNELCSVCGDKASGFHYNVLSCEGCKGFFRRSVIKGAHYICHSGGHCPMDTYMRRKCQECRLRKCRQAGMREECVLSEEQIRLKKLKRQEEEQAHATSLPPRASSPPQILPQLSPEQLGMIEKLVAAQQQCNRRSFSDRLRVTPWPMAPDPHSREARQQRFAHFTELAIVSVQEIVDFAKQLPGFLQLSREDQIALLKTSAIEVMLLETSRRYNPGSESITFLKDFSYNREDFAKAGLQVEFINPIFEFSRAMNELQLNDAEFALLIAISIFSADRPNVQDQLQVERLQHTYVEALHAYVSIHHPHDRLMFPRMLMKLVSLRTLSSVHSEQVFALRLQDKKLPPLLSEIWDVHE

[10] = molecular target: Retinoic acid receptor RXR-alpha/oxysterols receptor LXR-alpha (Homo sapiens) (UniProt P19793+Q13133); assay: Agonist activity at LXRalpha/RXRalpha expressed in […] Cos1 cells after 18 hrs by SEAP reporter gene assay; assay type: functional, cell-based
Mus musculus [11] = assay: Toxicity in ICR mouse assessed as increase in body weight at 30 mg/kg/day, po for 7 days relative to vehicle-treated control; assay type: organism-based; parameters: route oral; settings: in vivo, 168 h
Mus musculus [12] = assay: Toxicity in ICR mouse assessed as increase in liver weight at 30 mg/kg/day, po for 7 days relative to vehicle-treated control; assay type: organism-based; parameters: route oral; settings: in vivo, 168 h
Mus musculus [13] = assay: Toxicity in ICR mouse assessed as increase in serum triglyceride level at 30 mg/kg/day, po for 7 days relative to vehicle-treated control; assay type: organism-based; parameters: route oral; settings: in vivo, 168 h
Rattus norvegicus = assay: Toxicity in male Sprague-Dawley rat assessed as enlarged testes at 30 mg/kg/day, po for 28 days relative to vehicle-treated control; assay type: organism-based, Testis; parameters: route oral; settings: in vivo, 672 h
Mus musculus [14] = assay: Antidiabetic activity in diabetic, obese KK-Ay mouse assessed as blood glucose level at 10 mg/kg/day, po administered for 14 days measured on day 3 after starting of dosing (reference value: 500 mg/dL); assay type: functional
Mus musculus [15] = assay: Antidiabetic activity in diabetic, obese KK-Ay mouse assessed as increase in adiponectin level at 10 mg/kg/day, po administered for 14 days by oral glucose tolerance test; assay type: functional, organism-based
Mus musculus [16] = assay: Toxicity in KK-Ay mouse assessed as increase in body weight at 10 mg/kg/day, po administered for 14 days relative to vehicle-treated control; assay type: organism-based; parameters: route oral; settings: in vivo, 336 h
Mus musculus [17] = assay: Toxicity in KK-Ay mouse assessed as increase in liver weight at 10 mg/kg/day, po administered for 14 days relative to vehicle-treated control; assay type: organism-based; parameters: route oral; settings: in vivo, 336 h
Mus musculus [18] = assay: Toxicity in KK-Ay mouse assessed as increase in serum triglyceride level at 10 mg/kg/day, po administered for 14 days relative to vehicle-treated control; assay type: organism-based; parameters: route oral; settings: in vivo, 336 h
Mus musculus [19] = assay: Toxicity in KK-Ay mouse assessed as increase in total cholesterol level at 10 mg/kg/day, po administered for 14 days relative to vehicle-treated control; assay type: organism-based; parameters: route oral; settings: in vivo, 336 h
Mus musculus [20] = assay: Upregulation of Irs1 mRNA expression in KK-Ay mouse liver at 10 mg/kg/day, po administered for 14 days by RT-PCR analysis; assay type: functional, organism-based
Mus musculus [21] = assay: Upregulation of Scd1 mRNA expression in KK-Ay mouse liver at 10 mg/kg/day, po administered for 14 days by RT-PCR analysis; assay type: ADME, organism-based; parameters: route oral; settings: in vivo, 336 h
Mus musculus [22] = assay: Upregulation of Srebp1c mRNA expression in KK-Ay mouse liver at 10 mg/kg/day, po administered for 14 days by RT-PCR analysis; assay type: functional, organism-based
[23] = molecular target: T3, Retinoic acid receptor RXR-alpha (Homo sapiens) (UniProt P19793); assay: Agonist activity at RXRalpha expressed in […] Cos1 cells after 18 hrs by SEAP reporter gene assay; assay type: functional, cell-based
T3 sequence (whole entry): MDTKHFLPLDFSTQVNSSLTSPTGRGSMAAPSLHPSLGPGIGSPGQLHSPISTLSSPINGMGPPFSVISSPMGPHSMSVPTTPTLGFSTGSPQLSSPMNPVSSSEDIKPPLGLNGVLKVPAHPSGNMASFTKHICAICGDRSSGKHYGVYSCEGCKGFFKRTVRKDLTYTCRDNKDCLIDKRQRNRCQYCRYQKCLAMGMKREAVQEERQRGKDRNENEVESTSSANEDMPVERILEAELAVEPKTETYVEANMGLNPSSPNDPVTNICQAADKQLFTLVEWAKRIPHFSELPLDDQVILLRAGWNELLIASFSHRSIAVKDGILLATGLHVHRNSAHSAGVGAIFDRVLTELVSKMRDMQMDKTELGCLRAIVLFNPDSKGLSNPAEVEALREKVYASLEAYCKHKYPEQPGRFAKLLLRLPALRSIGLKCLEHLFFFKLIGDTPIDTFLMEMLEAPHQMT

| Structure (SMILES) | concentration (Serum) [nM] | Activity [7] | Activity [8] | Activity [9] | Activity [10] | Activity (Mus musculus [11]) | Activity (Mus musculus [12]) | Activity (Rattus norvegicus) | further results |
| --- | --- | --- | --- | --- | --- | --- | --- | --- | --- |
| Cc1cc2c(cc1-n1nnc3cc(C(=O)O)ccc31)C(C)(C)CCC2(C)C | 1000 | – | – | – | – | – | – | – | – |
| CCN(c1ccc2c(c1)C(C)(C)CCC2(C)C)c1ccc(C(=O)O)cn1 | 1000 | inactive | Active | Active | Active | Toxic | Toxic | Non-toxic | Activity (Mus musculus [1]): inactive; Activity (Mus musculus [2]): inactive; Activity (Mus musculus [3]): inactive; Activity (Mus musculus [4]): inactive; Activity (Mus musculus [5]): inactive; Activity (Mus musculus [6]): Toxic; Activity (Mus musculus [13]): Toxic; Activity (Mus musculus [14]): 300 mg/dL; Activity (Mus musculus [15]): Active; Activity (Mus musculus [16]): Toxic; Activity (Mus musculus [17]): Toxic; Activity (Mus musculus [18]): Toxic; Activity (Mus musculus [19]): Toxic; Activity (Mus musculus [20]): inactive; Activity (Mus musculus [21]): Toxic; Activity (Mus musculus [22]): inactive |
| Cc1cc2c(cc1-n1c(C)nc3cc(C(=O)O)ccc31)C(C)(C)CCC2(C)C | 1000 | inactive | Active | Active | Active | Toxic | Toxic | Non-toxic | Activity [23]: Active |
